In assay [1] the target is Human β2 adrenoceptor (Homo sapiens, UniProt P07550). The conditions noted are these: read-out: B2 binding affinity.
In assay [2] the target is Human M3 receptor (Homo sapiens, UniProt P20309). The conditions noted are these: read-out: M3 binding affinity.
Human M3 receptor, sequence (P20309 whole entry): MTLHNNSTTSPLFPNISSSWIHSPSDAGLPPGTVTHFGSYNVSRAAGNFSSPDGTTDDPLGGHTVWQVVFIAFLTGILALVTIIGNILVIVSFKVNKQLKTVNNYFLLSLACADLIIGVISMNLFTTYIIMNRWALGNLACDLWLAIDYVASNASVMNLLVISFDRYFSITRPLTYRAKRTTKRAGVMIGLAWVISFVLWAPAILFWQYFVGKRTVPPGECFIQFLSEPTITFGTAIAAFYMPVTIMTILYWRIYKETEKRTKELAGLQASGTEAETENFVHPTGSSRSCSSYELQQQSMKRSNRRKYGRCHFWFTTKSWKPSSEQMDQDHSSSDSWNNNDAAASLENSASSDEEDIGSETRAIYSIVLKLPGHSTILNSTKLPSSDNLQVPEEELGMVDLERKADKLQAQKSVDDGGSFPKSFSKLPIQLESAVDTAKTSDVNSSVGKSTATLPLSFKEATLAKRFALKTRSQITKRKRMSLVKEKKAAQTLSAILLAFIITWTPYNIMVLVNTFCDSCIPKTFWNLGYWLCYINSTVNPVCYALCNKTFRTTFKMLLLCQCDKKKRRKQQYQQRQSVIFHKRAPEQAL

Human β2 adrenoceptor, sequence (P07550 whole entry): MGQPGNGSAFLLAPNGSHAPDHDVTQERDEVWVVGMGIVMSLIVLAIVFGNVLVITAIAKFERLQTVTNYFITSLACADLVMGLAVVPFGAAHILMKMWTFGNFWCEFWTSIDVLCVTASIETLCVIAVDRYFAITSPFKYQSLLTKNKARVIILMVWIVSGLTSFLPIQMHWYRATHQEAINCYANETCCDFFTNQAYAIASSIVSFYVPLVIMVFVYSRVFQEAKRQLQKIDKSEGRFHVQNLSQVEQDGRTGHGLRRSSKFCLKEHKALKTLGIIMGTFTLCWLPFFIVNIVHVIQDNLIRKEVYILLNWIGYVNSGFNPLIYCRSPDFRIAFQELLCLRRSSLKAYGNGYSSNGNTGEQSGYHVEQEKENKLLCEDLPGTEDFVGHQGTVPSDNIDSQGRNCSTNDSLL

`O=C(COc1cccc([C@](O)(C(=O)OCC2CCN(Cc3ccccc3)CC2)c2ccccc2)c1)N1CC2(C1)CN(C(=O)c1ccc(CCNC[C@H](O)c3ccc(O)c4[nH]c(=O)ccc34)cc1)C2` [Compound 93, (1-benzylpiperidin-4-yl)methyl (S)-2-hydroxy-2-(3-(2-(6-(4-(2-(((R)-2-hydroxy-2-(8-hydroxy-2-oxo-1,2-dihydroquinolin-5-yl)ethyl)amino)ethyl)benzoyl)-2,6-diazaspiro[3.3]heptan-2-yl)-2-oxoethoxy)phenyl)-2-phenylacetate]: the IC50 in assay [1] was less than 300 pM; in assay [2] it was 300 to 3000 pM.
Taken in the same sequence, the figures for `CN(CCNC(=O)c1ccc(CCNC[C@H](O)c2ccc(O)c3[nH]c(=O)ccc23)cc1)C(=O)COc1cccc([C@](O)(C(=O)OCC2CCN(Cc3ccccc3)CC2)c2ccccc2)c1` [Compound 84, (1-benzylpiperidin-4-yl)methyl (S)-2-hydroxy-2-(3-(2-((2-(4-(2-(((R)-2-hydroxy-2-(8-hydroxy-2-oxo-1,2-dihydroquinolin-5-yl)ethyl)amino)ethyl)benzamido)ethyl)(methyl)amino)-2-oxoethoxy)phenyl)-2-phenylacetate] were 300 to 3000 pM and more than 3000 pM.
Taken in the same sequence, the figures for `O=C(c1ccc(CCNC[C@H](O)c2ccc(O)c3[nH]c(=O)ccc23)cc1)N1CC(COc2cccc([C@](O)(C(=O)OCC3CCN(Cc4ccccc4)CC3)c3ccccc3)c2)C1` [Compound 42, (S)-(1-benzylpiperidin-4-yl)methyl 2-hydroxy-2-(3-((1-(4-(2-(((R)-2-hydroxy-2-(8-hydroxy-2-oxo-1,2-dihydroquinolin-5-yl)ethyl)amino)ethyl)benzoyl)azetidin-3-yl)methoxy)phenyl)-2-phenylacetate] were less than 300 pM and less than 300 pM.
Taken in the same sequence, the figures for `Cc1ccc(C(O)(C(=O)OCC2CCN(Cc3ccccc3)CC2)c2cccc(OCCCCCNC[C@H](O)c3ccc(O)c4[nH]c(=O)ccc34)c2)cc1` (stereo partly drawn) [Compound 2, (1-benzylpiperidin-4-yl)methyl 2-hydroxy-2-(3-((5-(((R)-2-hydroxy-2-(8-hydroxy-2-oxo-1,2-dihydroquinolin-5-yl)ethyl)amino)pentyl)oxy)phenyl)-2-(p-tolyl)acetate] were 300 to 3000 pM and 300 to 3000 pM.
Take `O=C(COc1cccc([C@](O)(C(=O)OCC2CCN(Cc3ccccc3)CC2)c2ccccc2)c1)N1CCC(C(=O)N2CCC(CNC[C@H](O)c3ccc(O)c4[nH]c(=O)ccc34)CC2)CC1` [Compound 148, (1-benzylpiperidin-4-yl)methyl (S)-2-hydroxy-2-(3-(2-(4-(4-((((R)-2-hydroxy-2-(8-hydroxy-2-oxo-1,2-dihydroquinolin-5-yl)ethyl)amino)methyl)piperidine-1-carbonyl)piperidin-1-yl)-2-oxoethoxy)phenyl)-2-phenylacetate]: the IC50 was less than 300 pM in assay [1] and 300 to 3000 pM in assay [2].
For `O=C(c1ccc(C(=O)N2CCC(COc3cccc([C@](O)(C(=O)OCC4CCN(Cc5ccccc5)CC4)c4ccccc4)c3)CC2)s1)N1CCC(CNC[C@H](O)c2ccc(O)c3[nH]c(=O)ccc23)CC1` [Compound 156, (1-Benzylpiperidin-4-yl)methyl (S)-2-hydroxy-2-(3-((1-(5-(4-((((R)-2-hydroxy-2-(8-hydroxy-2-oxo-1,2-dihydroquinolin-5-yl)ethyl)amino)methyl)piperidine-1-carbonyl)thiophene-2-carbonyl)piperidin-4-yl)methoxy)phenyl)-2-phenylacetate], in that order: less than 300 pM and less than 300 pM.
For `O=C(COc1cccc([C@](O)(C(=O)OCC2CCN(Cc3ccccc3)CC2)c2ccccc2)c1)N[C@H]1CCN(C(=O)c2ccc(CNC[C@H](O)c3ccc(O)c4[nH]c(=O)ccc34)cc2)C1` [Compound 70, (1-benzylpiperidin-4-yl)methyl (S)-2-hydroxy-2-(3-(2-(((S)-1-(4-((((R)-2-hydroxy-2-(8-hydroxy-2-oxo-1,2-dihydroquinolin-5-yl)ethyl)amino)methyl)benzoyl)pyrrolidin-3-yl)amino)-2-oxoethoxy)phenyl)-2-phenylacetate], in that order: 300 to 3000 pM and 300 to 3000 pM.
For `CN1CCC(COC(=O)[C@](O)(c2ccccc2)c2cccc(OCCCNC(=O)c3ccc(CNC[C@H](O)c4ccc(O)c5[nH]c(=O)ccc45)cc3)c2)CC1` [Compound 162, (1-methylpiperidin-4-yl)methyl (S)-2-hydroxy-2-(3-(3-(4-((((R)-2-hydroxy-2-(8-hydroxy-2-oxo-1,2-dihydroquinolin-5-yl)ethyl)amino)methyl)benzamido)propoxy)phenyl)-2-phenylacetate], in that order: less than 300 pM and 300 to 3000 pM.
Turning to `O=C(COc1cccc([C@](O)(C(=O)OCC2CCN(Cc3ccccc3)CC2)c2ccccc2)c1)N1CCC(CNC[C@H](O)c2ccc(O)c3[nH]c(=O)ccc23)CC1` [Compound 36, (S)-(1-benzylpiperidin-4-yl)methyl 2-hydroxy-2-(3-(2-(4-((((R)-2-hydroxy-2-(8-hydroxy-2-oxo-1,2-dihydroquinolin-5-yl)ethyl)amino)methyl)piperidin-1-yl)-2-oxoethoxy)phenyl)-2-phenylacetate], the IC50 in assay [1] and in assay [2] was less than 300 pM each time.
Consider `O=C(NCCCNC(=O)c1cccc(C(O)(C(=O)OCC2CCN(Cc3ccccc3)CC2)c2ccccc2)c1)c1ccc(CNC[C@H](O)c2ccc(O)c3[nH]c(=O)ccc23)cc1` (stereo partly drawn) [Compound 50, (1-benzylpiperidin-4-yl)methyl 2-hydroxy-2-(3-((3-(4-((((R)-2-hydroxy-2-(8-hydroxy-2-oxo-1,2-dihydroquinolin-5-yl)ethyl)amino)methyl)benzamido)propyl)-carbamoyl)phenyl)-2-phenylacetate diformate], for which the IC50 in assay [1] is more than 3000 pM; in assay [2] it was 300 to 3000 pM.
Turning to `O=C(NCc1ccc(COc2cccc([C@](O)(C(=O)OC3CCN(Cc4ccccc4)CC3)c3ccccc3)c2)cc1)Nc1ccc(CNC[C@H](O)c2ccc(O)c3[nH]c(=O)ccc23)cc1` [Compound 166, 1-Benzylpiperidin-4-yl (S)-2-hydroxy-2-(3-((4-((3-(4-((((R)-2-hydroxy-2-(8-hydroxy-2-oxo-1,2-dihydroquinolin-5-yl)ethyl)amino)methyl)phenyl)ureido)-methyl)benzyl)oxy)phenyl)-2-phenylacetate], in assay [1], the IC50 is 300 to 3000 pM.
The same measure, in the same setting: in the case of `O=C(NCCCOc1cccc([C@](O)(C(=O)O[C@@H]2CCN(Cc3ccccc3)C2)c2ccccc2)c1)c1ccc(CNC[C@H](O)c2ccc(O)c3[nH]c(=O)ccc23)cc1` [Compound 163, (R)-1-benzylpyrrolidin-3-yl (S)-2-hydroxy-2-(3-(3-(4-((((R)-2-hydroxy-2-(8-hydroxy-2-oxo-1,2-dihydroquinolin-5-yl)ethyl)amino)methyl)benzamido)propoxy)phenyl)-2-phenylacetate] it was less than 300 pM; in that of `CN1CCC(OC(=O)[C@](O)(c2ccccc2)c2cccc(OCCCCCNC[C@H](O)c3ccc(O)c4[nH]c(=O)ccc34)c2)CC1` [Compound 21, (S)-1-methylpiperidin-4-yl 2-hydroxy-2-(3-((5-(((R)-2-hydroxy-2-(8-hydroxy-2-oxo-1,2-dihydroquinolin-5-yl)ethyl)amino)pentyl)oxy)phenyl)-2-phenylacetate], less than 300 pM; in that of `COc1cc(CNC[C@H](O)c2ccc(O)c3[nH]c(=O)ccc23)ccc1NC(=O)NCc1ccc(COc2cccc([C@](O)(C(=O)OC3CCN(Cc4ccccc4)CC3)c3ccccc3)c2)cc1` [Compound 168, 1-benzylpiperidin-4-yl (S)-2-hydroxy-2-(3-((4-((3-(4-((((R)-2-hydroxy-2-(8-hydroxy-2-oxo-1,2-dihydroquinolin-5-yl)ethyl)amino)methyl)-2-methoxyphenyl)ureido)methyl)benzyl)oxy)phenyl)-2-phenylacetate], 300 to 3000 pM.
On the same count and under the same terms, in the case of `CN1CC[C@@H](OC(=O)C(O)(c2ccccc2)c2cccc(C(=O)NCCCCNC[C@H](O)c3ccc(O)c4[nH]c(=O)ccc34)c2)C1` (stereo partly drawn) [Compound 49, (R)-1-methylpyrrolidin-3-yl 2-hydroxy-2-(3-((4-(((R)-2-hydroxy-2-(8-hydroxy-2-oxo-1,2-dihydroquinolin-5-yl)ethyl)amino)butyl)carbamoyl)phenyl)-2-phenylacetate diformate] it was less than 300 pM.
With `CN1CC[C@@H](OC(=O)[C@](O)(c2ccccc2)c2cccc(OCCCCCNC[C@H](O)c3ccc(O)c4[nH]c(=O)ccc34)c2)C1` [Compound 19], the IC50 in assay [1] was less than 300 pM.
Same read-out and setting: in the case of `O=C(NCCCOc1cccc([C@](O)(C(=O)OC2CN(Cc3ccccc3)C2)c2ccccc2)c1)c1ccc(CNC[C@H](O)c2ccc(O)c3[nH]c(=O)ccc23)cc1` [Compound 165, 1-benzylazetidin-3-yl (S)-2-hydroxy-2-(3-(3-(4-((((R)-2-hydroxy-2-(8-hydroxy-2-oxo-1,2-dihydroquinolin-5-yl)ethyl)amino)methyl)benzamido)propoxy)phenyl)-2-phenylacetate] it was less than 300 pM; in that of `O=C(NCCCOc1cccc([C@](O)(C(=O)OC[C@@H]2CCN(Cc3ccccc3)C2)c2ccccc2)c1)c1ccc(CNC[C@H](O)c2ccc(O)c3[nH]c(=O)ccc23)cc1` [Compound 159, ((R)-1-benzylpyrrolidin-3-yl)methyl (S)-2-hydroxy-2-(3-(3-(4-((((R)-2-hydroxy-2-(8-hydroxy-2-oxo-1,2-dihydroquinolin-5-yl)ethyl)amino)methyl)benzamido)propoxy)phenyl)-2-phenylacetate], less than 300 pM.
Consider `CN(C)CCOC(=O)[C@@](O)(c1ccccc1)c1cccc(OCCCCCNC[C@H](O)c2ccc(O)c3[nH]c(=O)ccc23)c1` [Compound 18, (R)-2-(dimethylamino)ethyl 2-hydroxy-2-(3-((5-(((R)-2-hydroxy-2-(8-hydroxy-2-oxo-1,2-dihydroquinolin-5-yl)ethyl)amino)pentyl)oxy)phenyl)-2-phenylacetate], for which, in assay [1], the IC50 is less than 300 pM.
The same measure, in the same setting: in the case of `CN1CCC[C@@H](OC(=O)[C@](O)(c2ccccc2)c2cccc(OCCCCCNC[C@H](O)c3ccc(O)c4[nH]c(=O)ccc34)c2)C1` [Compound 25] it was less than 300 pM.
